ChEMBL document CHEMBL5380826, “Conformationally Restricted σ1 Receptor Antagonists from (-)-Isopulegol” (J Med Chem, 2023)
Active and inactive are the calls of the source. The rule behind the calls is not given here.

molecular target: Sigma non-opioid intracellular receptor 1 (Cavia porcellus, UniProt Q60492); test: Displacement of [3H]-(+)-pentazocine from guinea pig brain membrane sigma 1 receptor assessed as inhibition constant measured after 120 mins by scintillation counting method; type: cell membranes; conditions: not given
Sequence (Q60492 whole entry): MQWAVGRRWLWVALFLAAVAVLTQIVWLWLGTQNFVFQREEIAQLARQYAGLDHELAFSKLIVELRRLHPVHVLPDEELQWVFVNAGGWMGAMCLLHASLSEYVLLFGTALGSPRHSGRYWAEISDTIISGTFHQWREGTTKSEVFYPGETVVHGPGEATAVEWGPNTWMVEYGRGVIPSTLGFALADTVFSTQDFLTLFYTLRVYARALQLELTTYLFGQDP

| SMILES | Ki [nM] |
| --- | --- |
| C[C@@H]1CC[C@@H]2[C@@H](C1)OC(C)(C)O[C@@]2(C)CN1CCC(Cc2ccccc2)CC1 | 16 |
| C[C@@H]1CC[C@@H]2[C@@H](C1)O[C@@H]1CN(CCCCc3ccccc3)C[C@@]2(C)O1 | 805 |
| C[C@@H]1CC[C@@H]([C@](C)(O)CNCCCCc2ccccc2)[C@@H](O)C1 | 43 |
| C[C@@H]1CC[C@@H]2[C@H](C1)OCO[C@@]2(C)CN1CCC(Cc2ccccc2)CC1 | 4.9 |
| C[C@@H]1CC[C@@H]2[C@@H](C1)OCO[C@@]2(C)CNCCCCc1ccccc1 | 69 |
| C[C@@H]1CC[C@@H]2[C@@H](C1)OCO[C@]2(C)CN1CCC(Cc2ccccc2)CC1 | 1.6 |
| C[C@@H]1CC[C@@H]2[C@@H](C1)O[C@H]1CN(CCCCc3ccccc3)C[C@]2(C)O1 | 2100 |
| C[C@@H]1CC[C@@H]2[C@@H](C1)OCO[C@@]2(C)CN1CCC(Cc2ccccc2)CC1 | 5 |

Continued by falling Ki, values first:

| Ki [nM] | SMILES |
| --- | --- |
| 54 | C[C@@H]1CC[C@@H]2[C@H](C1)O[C@@H]1CN(CCCCc3ccccc3)C[C@@]2(C)O1 |
| 42 | C[C@@H]1CC[C@@H]2[C@H](C1)OCO[C@]2(C)CNCCCCc1ccccc1 |
| 31 | C[C@@H]1CC[C@@H]([C@](C)(O)CNCCCCc2ccccc2)[C@H](O)C1 |
| 9.7 | C[C@@H]1CC[C@@H]2[C@@H](C1)OCO[C@]2(C)CNCCCCc1ccccc1 |
| 1.2 | C[C@@H]1CC[C@@H]([C@@](C)(O)CN2CCC(Cc3ccccc3)CC2)[C@H](O)C1 |

molecular target: T1, Sigma intracellular receptor 2 (Rattus norvegicus, UniProt Q5U3Y7); test: Displacement of [3H]di-o-tolylguanidine from rat liver membrane sigma 2 receptor assessed as inhibition constant measured after 120 mins by scintillation counting method; type: cell membranes; conditions: not given
T1 sequence (Q5U3Y7 whole entry): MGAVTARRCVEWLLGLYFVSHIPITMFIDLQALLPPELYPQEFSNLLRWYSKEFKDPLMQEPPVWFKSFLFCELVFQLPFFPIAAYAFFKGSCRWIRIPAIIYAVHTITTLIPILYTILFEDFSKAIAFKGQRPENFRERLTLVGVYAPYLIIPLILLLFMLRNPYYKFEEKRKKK

| SMILES | Ki [nM] |
| --- | --- |
| C[C@@H]1CC[C@@H]2[C@@H](C1)OC(C)(C)O[C@@]2(C)CN1CCC(Cc2ccccc2)CC1 | 649 |
| C[C@@H]1CC[C@@H]2[C@@H](C1)O[C@@H]1CN(CCCCc3ccccc3)C[C@@]2(C)O1 | 1600 |
| C[C@@H]1CC[C@@H]([C@](C)(O)CNCCCCc2ccccc2)[C@@H](O)C1 | 265 |
| C[C@@H]1CC[C@@H]2[C@H](C1)OCO[C@@]2(C)CN1CCC(Cc2ccccc2)CC1 | 145 |
| C[C@@H]1CC[C@@H]2[C@@H](C1)OCO[C@@]2(C)CNCCCCc1ccccc1 | 86 |
| C[C@@H]1CC[C@@H]2[C@@H](C1)OCO[C@]2(C)CN1CCC(Cc2ccccc2)CC1 | 379 |
| C[C@@H]1CC[C@@H]2[C@@H](C1)OCO[C@@]2(C)CN1CCC(Cc2ccccc2)CC1 | 119 |

More lines, now with the values ahead:

| Ki [nM] | SMILES |
| --- | --- |
| 779 | C[C@@H]1CC[C@@H]2[C@H](C1)O[C@@H]1CN(CCCCc3ccccc3)C[C@@]2(C)O1 |
| 273 | C[C@@H]1CC[C@@H]2[C@H](C1)OCO[C@]2(C)CNCCCCc1ccccc1 |
| 207 | C[C@@H]1CC[C@@H]([C@](C)(O)CNCCCCc2ccccc2)[C@H](O)C1 |
| 322 | C[C@@H]1CC[C@@H]2[C@@H](C1)OCO[C@]2(C)CNCCCCc1ccccc1 |
| 36 | C[C@@H]1CC[C@@H]([C@@](C)(O)CN2CCC(Cc3ccccc3)CC2)[C@H](O)C1 |

molecular target: Glutamate receptor ionotropic, NMDA 2B (Mus musculus, UniProt P35438+Q01097); test: Displacement of [3H]ifenprodil from GluN2B in mouse LTK cells assessed as inhibition constant measured after 120 mins by scintillation counting method; type: cell-based; conditions: not given
Sequence (Q01097 whole entry, one chain of several): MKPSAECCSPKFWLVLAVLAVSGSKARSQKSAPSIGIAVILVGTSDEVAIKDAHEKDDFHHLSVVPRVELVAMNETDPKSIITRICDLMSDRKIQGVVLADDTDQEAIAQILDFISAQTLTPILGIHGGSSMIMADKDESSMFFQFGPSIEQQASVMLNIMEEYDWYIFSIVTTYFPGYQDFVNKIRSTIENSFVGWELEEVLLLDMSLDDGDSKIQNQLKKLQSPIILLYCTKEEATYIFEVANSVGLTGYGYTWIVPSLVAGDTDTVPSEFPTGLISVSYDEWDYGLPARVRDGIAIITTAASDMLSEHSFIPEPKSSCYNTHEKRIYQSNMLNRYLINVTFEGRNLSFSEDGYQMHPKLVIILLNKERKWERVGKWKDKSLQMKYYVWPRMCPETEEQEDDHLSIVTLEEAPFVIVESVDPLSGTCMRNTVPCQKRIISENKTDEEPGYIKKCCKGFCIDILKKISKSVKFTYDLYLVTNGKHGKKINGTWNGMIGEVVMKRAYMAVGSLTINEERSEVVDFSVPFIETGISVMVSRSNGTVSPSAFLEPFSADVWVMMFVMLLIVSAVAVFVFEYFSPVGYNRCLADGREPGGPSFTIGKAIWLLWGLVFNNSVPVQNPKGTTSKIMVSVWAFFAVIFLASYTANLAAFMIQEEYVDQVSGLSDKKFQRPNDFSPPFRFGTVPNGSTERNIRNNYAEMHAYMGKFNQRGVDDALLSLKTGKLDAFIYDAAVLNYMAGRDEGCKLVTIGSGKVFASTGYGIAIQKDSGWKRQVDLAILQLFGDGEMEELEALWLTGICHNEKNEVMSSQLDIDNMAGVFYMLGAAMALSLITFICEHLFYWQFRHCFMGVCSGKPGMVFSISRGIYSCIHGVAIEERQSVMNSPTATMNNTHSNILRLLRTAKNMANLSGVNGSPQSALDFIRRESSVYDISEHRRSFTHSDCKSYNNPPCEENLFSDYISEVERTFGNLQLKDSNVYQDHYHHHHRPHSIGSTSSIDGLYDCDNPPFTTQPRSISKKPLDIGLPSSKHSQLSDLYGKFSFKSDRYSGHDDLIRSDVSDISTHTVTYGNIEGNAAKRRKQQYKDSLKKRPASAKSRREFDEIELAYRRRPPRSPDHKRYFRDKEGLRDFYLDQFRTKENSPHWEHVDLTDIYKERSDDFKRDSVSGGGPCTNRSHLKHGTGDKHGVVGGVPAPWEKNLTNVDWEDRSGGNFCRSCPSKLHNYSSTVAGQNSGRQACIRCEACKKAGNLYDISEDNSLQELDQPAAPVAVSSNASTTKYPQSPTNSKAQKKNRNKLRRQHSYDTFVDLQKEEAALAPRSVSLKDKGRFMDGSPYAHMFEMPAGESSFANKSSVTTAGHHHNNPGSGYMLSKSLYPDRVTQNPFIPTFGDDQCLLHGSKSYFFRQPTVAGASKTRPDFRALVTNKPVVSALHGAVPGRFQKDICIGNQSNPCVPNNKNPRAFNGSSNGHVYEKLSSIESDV

| SMILES | Ki [nM] |
| --- | --- |
| C[C@@H]1CC[C@@H]2[C@@H](C1)OC(C)(C)O[C@@]2(C)CN1CCC(Cc2ccccc2)CC1 | 1300 |
| C[C@@H]1CC[C@@H]([C@](C)(O)CNCCCCc2ccccc2)[C@@H](O)C1 | 511 |
| C[C@@H]1CC[C@@H]2[C@H](C1)OCO[C@@]2(C)CN1CCC(Cc2ccccc2)CC1 | 205 |
| C[C@@H]1CC[C@@H]2[C@@H](C1)OCO[C@@]2(C)CNCCCCc1ccccc1 | 61 |
| C[C@@H]1CC[C@@H]2[C@@H](C1)OCO[C@]2(C)CN1CCC(Cc2ccccc2)CC1 | 370 |
| C[C@@H]1CC[C@@H]2[C@@H](C1)OCO[C@@]2(C)CN1CCC(Cc2ccccc2)CC1 | 36 |

The next lines start with the values.

| Ki [nM] | SMILES |
| --- | --- |
| 890 | C[C@@H]1CC[C@@H]2[C@H](C1)O[C@@H]1CN(CCCCc3ccccc3)C[C@@]2(C)O1 |
| 263 | C[C@@H]1CC[C@@H]2[C@H](C1)OCO[C@]2(C)CNCCCCc1ccccc1 |
| 508 | C[C@@H]1CC[C@@H]([C@](C)(O)CNCCCCc2ccccc2)[C@H](O)C1 |
| 408 | C[C@@H]1CC[C@@H]2[C@@H](C1)OCO[C@]2(C)CNCCCCc1ccccc1 |
| 53 | C[C@@H]1CC[C@@H]([C@@](C)(O)CN2CCC(Cc3ccccc3)CC2)[C@H](O)C1 |

test system: not listed separately; test: Lipophilicity, logD of the compound at pH 7.4 by LC-MS analysis; type: physicochemical; conditions: buffer

| logD | SMILES |
| --- | --- |
| 3.05 | C[C@@H]1CC[C@@H]([C@@](C)(O)CN2CCC(Cc3ccccc3)CC2)[C@H](O)C1 |
| 2.67 | C[C@@H]1CC[C@@H]2[C@@H](C1)OCO[C@@]2(C)CNCCCCc1ccccc1 |
| 3.96 | C[C@@H]1CC[C@@H]2[C@@H](C1)O[C@H]1CN(CCCCc3ccccc3)C[C@]2(C)O1 |
| 3.45 | C[C@@H]1CC[C@@H]2[C@@H](C1)OCO[C@@]2(C)CN1CCC(Cc2ccccc2)CC1 |

test system: not listed separately; test: Plasma protein binding in human by HPAC method; type: ADME, cell-free; conditions: read-out: PPB (converted)

| fraction unbound | SMILES |
| --- | --- |
| 0.122 | C[C@@H]1CC[C@@H]([C@@](C)(O)CN2CCC(Cc3ccccc3)CC2)[C@H](O)C1 |
| 0.061 | C[C@@H]1CC[C@@H]2[C@@H](C1)OCO[C@@]2(C)CNCCCCc1ccccc1 |
| < 0.02 | C[C@@H]1CC[C@@H]2[C@@H](C1)O[C@H]1CN(CCCCc3ccccc3)C[C@]2(C)O1 |

test system: not listed separately; test: Metabolic stability in C57BL/6 mouse liver microsomes assessed as compound remaining incubated for 90 mins in presence of NADPH by LC-MS analysis; type: ADME, Microsome; conditions: read-out: Activity

| remaining at 1.5 h [%] | SMILES |
| --- | --- |
| 19 | C[C@@H]1CC[C@@H]([C@@](C)(O)CN2CCC(Cc3ccccc3)CC2)[C@H](O)C1 |

test system: Mus musculus; test: Antiallodynic activity in capsaicin-induced allodynia CD1 mouse model at 16 mg/kg, sc pretreated for 30 mins followed by capsaicin addition and measured after 15 mins relative to control; type: functional; conditions: time 45 min, 0.75 h

| SMILES | Activity [%] |
| --- | --- |
| C[C@@H]1CC[C@@H]([C@@](C)(O)CN2CCC(Cc3ccccc3)CC2)[C@H](O)C1 | ~89 |

test system: Mus musculus; test: Antiallodynic activity in capsaicin-induced mechanical allodynia CD1 mouse model assessed as increase in paw withdrawal latency at 4 to 32 mg/kg, sc pretreated for 30 mins followed by capsaicin addition and measured after 15 mins; type: functional, organism-based; conditions: dose 4-32 mg/kg, time 45.0 min

| SMILES | Activity |
| --- | --- |
| C[C@@H]1CC[C@@H]([C@@](C)(O)CN2CCC(Cc3ccccc3)CC2)[C@H](O)C1 | Active |

test system: Mus musculus; test: Antiallodynic activity in capsaicin-induced mechanical allodynia CD1 mouse model assessed as increase in paw withdrawal latency at 16 mg/kg, sc pretreated with PRE-084 followed by compound addition; type: functional, organism-based; conditions: not given

| SMILES | Activity |
| --- | --- |
| C[C@@H]1CC[C@@H]([C@@](C)(O)CN2CCC(Cc3ccccc3)CC2)[C@H](O)C1 | inactive |

test system: Mus musculus; test: Antiallodynic activity in sc dosed capsaicin-induced allodynia CD1 mouse model pretreated for 30 mins followed by capsaicin addition and measured after 15 mins; type: functional; conditions: CD1, 0.75 h, time 45 min

| SMILES | ED50 [mg/kg] |
| --- | --- |
| C[C@@H]1CC[C@@H]([C@@](C)(O)CN2CCC(Cc3ccccc3)CC2)[C@H](O)C1 | ~8 |

molecular target: T2, Sigma intracellular receptor 2 (Rattus norvegicus) (UniProt Q5U3Y7); test: Displacement of [3H]di-o-tolylguanidine from rat liver membrane sigma 2 receptor at 1 uM measured after 120 mins by scintillation counting method relative to control; type: cell membranes; conditions: not given
T2 sequence (whole entry): T1 sequence (Q5U3Y7 whole entry)

| inhibition [%] | SMILES |
| --- | --- |
| 0 | C[C@@H]1CC[C@@H]2[C@@H](C1)O[C@H]1CN(CCCCc3ccccc3)C[C@]2(C)O1 |

molecular target: Glutamate receptor ionotropic, NMDA 2B (Mus musculus) (UniProt Q01097); test: Displacement of [3H]ifenprodil from GluN2B in mouse LTK cells at 1 uM measured after 120 mins by scintillation counting method relative to control; type: cell-based; conditions: not given
Sequence (Q01097 whole entry): as the sequence (Q01097 whole entry, one chain of several) above

| inhibition [%] | SMILES |
| --- | --- |
| 0 | C[C@@H]1CC[C@@H]2[C@@H](C1)O[C@@H]1CN(CCCCc3ccccc3)C[C@@]2(C)O1 |
| 6 | C[C@@H]1CC[C@@H]2[C@@H](C1)O[C@H]1CN(CCCCc3ccccc3)C[C@]2(C)O1 |
